Entries after “also recorded” stand apart in the source; their conditions may differ.
Legend:
KCNQ2 mutant W236L = target: T1, KCNQ2 mutant W236L (Homo sapiens, UniProt O43526, W236L); assay: KCNQ2 mutant W236L in CHO cells; type: cell-based; settings: 10 μM retigabine; 10 μM or 25 μM NH29
T1 construct: expressed in transfected cells; host or cells: CHO cells
Protocol: FIGS. 11A-F present the potentiating effect of NH29, an exemplary channel opener compound according to embodiments of the present invention, and Retigabine, on KCNQ2 mutants R207W and W236L mutant. Shown are representative traces recorded from CHO cell transfected with the KCNQ2 mutant R207W 0, 1 and 4-4.5 minutes after external application of 25 μM of NH29 and wherein the membrane potential was stepped from −90 mV holding potential to −20 mV for 1.5 seconds pulse duration (FIG. 11A), or 0, 1 and 4 minutes after external application of 25 μM of Retigabine wherein the membrane potential was stepped from −90 mV holding potential to −40 mV for 1.5 seconds pulse duration (FIG. 11B). FIGS. 11C and 11D show representative traces recorded from CHO cells transfected with the KCNQ2 mutant W236L 0, 1 and 6 minutes after external application of 25 μM of NH29 (FIG. 11C) or 0 and 5 minutes after external application of 10 μM of Retigabine (FIG. 11D) and wherein the membrane potential was stepped from −90 mV holding potential to −40 mV for 1.5 seconds pulse duration. […]
Voltage-clamp recordings in CHO cells were performed, using the whole-cell configuration of the patch-clamp technique. […] Series resistances (3-13 MΩ) were compensated (75-90%) and periodically monitored.

KCNQ2 mutant R207W = target: T2, KCNQ2 mutant R207W (Homo sapiens, UniProt O43526, R207W); type: cell-based; settings: RTG (25 μM, −40 mV, FIG. 11B)
T2 construct: expressed in transfected cells; host or cells: CHO cells
T2 sequence (O43526 whole entry R207W): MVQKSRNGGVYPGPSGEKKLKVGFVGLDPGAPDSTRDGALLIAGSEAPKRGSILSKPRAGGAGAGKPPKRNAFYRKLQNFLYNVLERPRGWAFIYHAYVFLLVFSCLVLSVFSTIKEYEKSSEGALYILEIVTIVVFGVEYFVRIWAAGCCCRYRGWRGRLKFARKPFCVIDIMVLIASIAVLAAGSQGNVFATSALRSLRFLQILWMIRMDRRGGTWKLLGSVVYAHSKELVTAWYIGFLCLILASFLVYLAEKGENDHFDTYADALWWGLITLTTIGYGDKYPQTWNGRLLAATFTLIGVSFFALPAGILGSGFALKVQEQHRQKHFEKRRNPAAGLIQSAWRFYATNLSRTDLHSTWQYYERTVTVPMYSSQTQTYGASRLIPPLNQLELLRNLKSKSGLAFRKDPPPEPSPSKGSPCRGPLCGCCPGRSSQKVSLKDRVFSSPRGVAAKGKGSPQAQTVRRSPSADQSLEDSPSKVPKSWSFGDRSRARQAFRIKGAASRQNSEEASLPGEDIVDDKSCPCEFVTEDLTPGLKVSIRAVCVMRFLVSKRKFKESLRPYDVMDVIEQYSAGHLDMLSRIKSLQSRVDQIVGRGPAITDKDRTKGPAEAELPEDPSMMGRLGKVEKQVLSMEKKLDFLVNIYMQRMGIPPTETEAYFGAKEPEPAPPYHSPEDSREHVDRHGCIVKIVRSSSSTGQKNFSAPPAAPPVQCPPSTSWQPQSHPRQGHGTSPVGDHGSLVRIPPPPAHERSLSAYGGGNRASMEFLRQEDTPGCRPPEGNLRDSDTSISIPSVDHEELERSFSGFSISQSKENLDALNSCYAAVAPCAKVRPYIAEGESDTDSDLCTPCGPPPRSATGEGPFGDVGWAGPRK
Excerpt: FIGS. 10A-D present the potentiating effect of NH29, an exemplary channel opener compound according to embodiments of the present invention, on wild type KCNQ2 (FIGS. 10A and 10B) and R207W mutant (FIGS. 10C and 10D) channels, as expressed in activation curve measurements, showing that NH29 left-shifts the activation curve (ΔV50) by −15.5 mV and −5.5 mV in the case of the wild-type and the mutant, respectively, and showing that NH29 enhances the current of wild-type and the mutant by about 3.4-fold (at −40 mV) and 1.5-fold (at −20 mV), respectively.
FIGS. 11A-F present the potentiating effect of NH29, an exemplary channel opener compound according to embodiments of the present invention, and Retigabine, on KCNQ2 mutants R207W and W236L mutant. Shown are representative traces recorded from CHO cell transfected with the KCNQ2 mutant R207W 0, 1 and 4-4.5 minutes after external application of 25 μM of NH29 and wherein the membrane potential was stepped from −90 mV holding potential to −20 mV for 1.5 seconds pulse duration (FIG. 11A), or 0, 1 and 4 minutes after external application of 25 μM of Retigabine wherein the membrane potential was stepped from −90 mV holding potential to −40 mV for 1.5 seconds pulse duration (FIG. 11B). FIGS. 11C and 11D show representative traces recorded from CHO cells transfected with the KCNQ2 mutant W236L 0, 1 and 6 minutes after external application of 25 μM of NH29 (FIG. 11C) or 0 and 5 minutes after external application of 10 μM of Retigabine (FIG. 11D) and wherein the membrane potential was stepped from −90 mV holding potential to −40 mV for 1.5 seconds pulse duration. FIG. 11E presents superimposed traces, showing the effects of Retigabine (RTG) and NH29 on the channel activity of KCNQ2 mutant W236L as measured at −40 mV; and FIG. 11F presents a bar diagram comparing the potentiating effect of NH29 and Retigabine on native KCNQ2 and KCNQ2 mutants, wherein the opener effect is expressed as percent of the control current in the absence of the opener.
(§1) Voltage-clamp recordings in CHO cells were performed, using the whole-cell configuration of the patch-clamp technique. Signals were amplified using an Axopatch 200B patch-clamp amplifier (Molecular Devices, Sunnyvale, Calif.), sampled at 2 kHz and filtered at 800 Hz via a 4-pole Bessel low pass filter. Data were acquired using pClamp 9.2 software (Molecular Devices) and an IBM compatible Pentium IV computer in conjunction with a DigiData 1322A interface (Molecular Devices). The patch pipettes were pulled from borosilicate glass (Warner Instrument Corp, USA) with a resistance of 2-5 MΩ. For K^+ current recordings in CHO cells, the intracellular pipette solution contained (in mM): 130 KCl, 1 MgCl2, 5 K2ATP, 5 EGTA, 10 HEPES, adjusted with KOH to pH 7.4 (290 mOsm). The extracellular solution contained (in mM): 140 NaCl, 4 KCl, 1.8 CaCl2, 1.2 MgCl2, 11 glucose, 5.5 HEPES, adjusted with NaOH to pH 7.4 (310 mOsm). Series resistances (3-13 MΩ) were compensated (75-90%) and periodically monitored.

KCNQ2 mutant R198A = target: T3, KCNQ2 mutant R198A (Homo sapiens, UniProt O43526, R198A); assay: KCNQ2 S4 mutant R198A; type: cell-based; settings: RTG
T3 construct: expressed in transfected cells
T3 sequence (O43526 whole entry R198A): as the sequence (O43526 whole entry R207W) above, with R198A, W207R counted along it
Excerpt: (§2) FIGS. 12A-F present the potentiating effect of NH29, an exemplary channel opener compound according to embodiments of the present invention, on selected KCNQ2 mutants. Shown are bar diagrams comparing the potentiating effect of NH29 on native KCNQ2 and KCNQ2 mutants, wherein the mutated amino acids are located at the S1-S2 helix region (FIG. 12A) or S4 helix region (FIG. 12D) and wherein the opener effect is expressed as percent of the control current in the absence of the opener. For comparison, marked as a green line, is the observed current increase of native KCNQ2 by NH29. FIGS. 12B 12C, 12E and 12F present representative traces recorded from CHO cell transfected with the KCNQ2 mutant S122A, S121A, L206C and R201A respectively, before and after external application of 25 μM of NH29 and wherein the membrane potential was stepped from −90 mV holding potential to −40 mV for 1.5 seconds pulse duration.
(§3) Voltage-clamp recordings in CHO cells were performed, using the whole-cell configuration of the patch-clamp technique. Signals were amplified using an Axopatch 200B patch-clamp amplifier (Molecular Devices, Sunnyvale, Calif.), sampled at 2 kHz and filtered at 800 Hz via a 4-pole Bessel low pass filter. […] Series resistances (3-13 MΩ) were compensated (75-90%) and periodically monitored.

KCNQ2 mutant S121A = target: T4, KCNQ2 mutant S121A (Homo sapiens, UniProt O43526, S121A); assay: KCNQ2 S1-S2 mutant S121A in CHO cells; type: cell-based; settings: RTG
T4 construct: expressed in transfected cells; host or cells: CHO cells
T4 sequence (O43526 whole entry S121A): as the sequence (O43526 whole entry R207W) above, with S121A, W207R counted along it
Excerpt: as §2, §3

Kv7.2/3 channels = target: T5, Kv7.2/3 channels (Homo sapiens, UniProt O43525+O43526); assay: Kv7.2/3 channels coexpressed in CHO cells, whole-cell patch-clamp; type: cell-based
T5 construct: expressed in transfected cells; host or cells: CHO cells
Protocol: Chinese hamster ovary (CHO) cells were grown in Dulbecco's modified Eagle's medium (DMEM) supplemented with 2 mM glutamine, 10% fetal calf serum and antibiotics. Briefly, 40,000 cells seeded on poly-D-lysine-coated glass coverslips (13 mm diameter) in a 24-multiwell plate were transfected with pIRES-CD8 (0.5 μg) as a marker for transfection, and with Kv7.2 (0.5 μg) and Kv7.3 (0.5 μg) or TRPV1 […] or TRPV6 […].
For electrophysiology, transfected cells were visualized approximately 40 hours following transfection, using anti-CD8 antibody-coated beads. Transfection was performed using Fugene 6 (Roche, Indianapolis Ind., USA) according to the manufacturer's protocol.
as §1, with “Data were acquired using pClamp 9.2 software (Molecular Devices) and an IBM compatible Pentium IV computer in conjunction with a DigiData 1322A interface (Molecular Devices).” left out, “mOsm).” for “mOsm). Series resistances (3-13 MΩ) were compensated (75-90%) and periodically monitored.”
Data analysis was performed using the Clampfit program (pClamp 9.2, Molecular Devices), Microsoft Excel (Microsoft) and Prism 4.0 (GraphPad). Chord conductance (G) was calculated by using the following equation: G=I/(V−Vrev) where I corresponds to the current amplitude measured at the end of the pulse and Vrev, the calculated reversal potential. G was estimated at various test voltages V and then, normalized to a maximal conductance value, Gmax. Activation curves were fitted by one Boltzmann distribution: G/Gmax=1/{1+exp[(V50−V)/s]} where V50 is the voltage at which the current is half-activated and s is the slope factor. All data were expressed as mean±SEM. Statistically significant differences were assessed by Student's t-test. Analysis of sEPSCs and sIPSCs was done using the Clampfit program (pClamp 9.2, Molecular Devices) and included evaluation of the individual events as well as the average event amplitude and the integral of the event (total charge transfer).
In these studies, the impact of the compounds on M-channel activity was measured by the heterologous coexpression of Kv7.2 and Kv7.3 subunits in CHO cells.

DRG neurons [1] = assay: Current-clamp recordings in cultured DRG neurons; type: cell-based, rat
Protocol: For dorsal root ganglion (DRG) neuronal cultures, ganglia were dissected from 2-5 day-old Sprague-Dawley rats killed by decapitation. DRGs were placed in Hank's balanced saline solution (HBSS) and prepared by enzymatic dissociation. Briefly, after 30 minutes incubation in 5 mg/ml dispase, 2 mg/ml collagenase type 1A and 0.1 mg/ml DNase (Invitrogen/Gibco, Carlsbad, Calif.) in Ca^2+ and Mg^2+-free HBSS, the ganglia were mechanically triturated with a fire-polished glass Pasteur pipette. The ganglia were then centrifuged for 5 minutes at 80×g and resuspended in DMEM supplemented with 2 mM L-glutamine, 16.5 mM NaHCO3, 6 g/l glucose, 5 ml penicillin/streptomycin and 10% fetal calf serum.
For electrophysiological recording, dissociated neurons were plated on 13 mm glass coverslips, previously coated with poly-D-lysine (1 mg/ml) and laminin (10 μg/ml) and used at 1-2 days in culture.
For current-clamp recordings in primary cultured neurons, the patch pipettes were filled with (in mM): 135 KCl, 1 K2ATP, 1 MgATP, 2 EGTA, 1.1 CaCl2, 5 glucose, 10 HEPES, adjusted with KOH at pH 7.4 (315 mOsm). The external solution contained (in mM): 150 NaCl, 2.5 KCl, 2 CaCl2, 2 MgCl2, 15 glucose, 10 HEPES, adjusted with NaOH at pH 7.4 (325 mOsm). Recordings were sampled at 5 kHz and filtered at 2 KHz via a 4-pole Bessel low pass filter. A liquid junction potential of about −15.6 mV was measured between the intracellular and saline solutions and corrected on-line.
For evoking spike discharges, 75-200 pA square depolarizing current pulses were injected into neurons for 400 ms. For rheobase current measurements, 100-1100 pA square depolarizing current pulses were injected into neurons for 2 ms.

DRG neurons [2] = assay: Current-clamp recordings in cultured DRG neurons; type: cell-based, rat; settings: 1 μM NH17; about 10-20 pA for 400 ms; control 1±0; n=5

T1 sequence (O43526 whole entry W236L): as the sequence (O43526 whole entry R207W) above, with W207R, W236L counted along it

## CCOC(=O)Nc1ccc(NCc2ccc(F)cc2)cc1N [retigabine, N-(2-amino-4-(4-fluorobenzylamino)-phenyl)carbamic acid ethyl ester, reference compound]
KCNQ2 mutant W236L
  effect of point mutation W236L on the opener effect: completely abolished the opener effect
KCNQ2 mutant R207W
  fold increase of current amplitude: more than 6 fold
KCNQ2 mutant R198A
  fold increase of current amplitude: 4.4 fold
KCNQ2 mutant S121A
  fold increase of current: more than 5 fold

## Cl.NCCOCCOC(=O)Cc1ccccc1Nc1c(Cl)cccc1Cl [NH17]
Kv7.2/3 channels; CHO, 25 μM, membrane potentials from −60 to +50 mV, read-out: inhibition of the Kv7.2/3 current
  inhibition at 25 µM: > 90%
Kv7.2/3 channels; M-channel modulation, Kv7.2 and Kv7.3 subunits coexpressed in CHO cells
  Activity: potent M-channel blockers; also recorded: Blocker
Kv7.2/3 channels; compounds whose Activity is Blocker, read-out: EC50
  EC50: 11 µM
Kv7.2/3 channels; recombinant Kv7.2/3 in CHO cells, read-out: IC50, blockade of the K+ currents
  IC50: 11 µM
DRG neurons [1]; 1 μM NH17
  decrease in rheobase current: about 300 pA
DRG neurons [1]; 1 μM NH17, within 2 minutes
  depolarization of DRG membrane potential (ΔV): +7±1 mV
DRG neurons [1]; 1 μM NH17, 2 ms injection, control 650±71 pA, n=6
  rheobase current to generate a single spike: 347±44 pA
DRG neurons [2]
  number of evoked spikes: 12±2
